Measurements: the kinase profiling compilation of Christmann-Franck et al. (2016)

How the values were obtained:
Test in all cases: radiometric filter-binding kinase assay, Kinase HotSpot
Conditions in all cases: compound 0.5 µM; ATP 10 µM
ABL1 (human) = ABL1 (human) (UniProt P00519)
ACVR1 (human) = ACVR1 (human) (UniProt Q04771)
AURKB (human) = AURKB (human) (UniProt Q96GD4)
BLK (human) = BLK (human) (UniProt P51451)
BTK (human) = BTK (human) (UniProt Q06187)
CDK1 CCNA2 (human) = CDK1 CCNA2 (human) (UniProt P06493+P20248)
DCLK2 (human) = DCLK2 (human) (UniProt Q8N568)
DYRK1A (human) = DYRK1A (human) (UniProt Q13627)
EGFR (human) = EGFR (human) (UniProt P00533)
EPHA3 (human) = EPHA3 (human) (UniProt P29320)
EPHA5 (human) = EPHA5 (human) (UniProt P54756)
EPHA6 (human) = EPHA6 (human) (UniProt Q9UF33)
FER (human) = FER (human) (UniProt P16591)
FGR (human) = FGR (human) (UniProt P09769)
FLT1 (human) = FLT1 (human) (UniProt P17948)
FRK (human) = FRK (human) (UniProt P42685)
GSG2 (human) = GSG2 (human) (UniProt Q8TF76)
HIPK3 (human) = HIPK3 (human) (UniProt Q9H422)
IGF1R (human) = IGF1R (human) (UniProt P08069)
IKBKB (human) = IKBKB (human) (UniProt O14920)
MAP2K2 (human) = MAP2K2 (human) (UniProt P36507)
MAP3K2 (human) = MAP3K2 (human) (UniProt Q9Y2U5)
MAPKAPK2 (human) = MAPKAPK2 (human) (UniProt P49137)
MYLK2 (human) = MYLK2 (human) (UniProt Q9H1R3)
MYO3B (human) = MYO3B (human) (UniProt Q8WXR4)
PAK6 (human) = PAK6 (human) (UniProt Q9NQU5)
PNCK (human) = PNCK (human) (UniProt Q6P2M8)
PRKACG (human) = PRKACG (human) (UniProt P22612)
PRKCB1 (human) = PRKCB1 (human) (UniProt P05771)
PRKCD (human) = PRKCD (human) (UniProt Q05655)
RET (human) = RET (human) (UniProt P07949)
ROS1 (human) = ROS1 (human) (UniProt P08922)
STK24 (human) = STK24 (human) (UniProt Q9Y6E0)
STK38 (human) = STK38 (human) (UniProt Q15208)
STK4 (human) = STK4 (human) (UniProt Q13043)
TLK2 (human) = TLK2 (human) (UniProt Q86UE8)
ULK3 (human) = ULK3 (human) (UniProt Q6PHR2)
ZAP70 (human) = ZAP70 (human) (UniProt P43403)
CSNK2A2 (human) = CSNK2A2 (human) (UniProt P19784)
PDGFRB (human) = PDGFRB (human) (UniProt P09619)

Chain of ZAP70 (human) (P43403 whole entry, looked up): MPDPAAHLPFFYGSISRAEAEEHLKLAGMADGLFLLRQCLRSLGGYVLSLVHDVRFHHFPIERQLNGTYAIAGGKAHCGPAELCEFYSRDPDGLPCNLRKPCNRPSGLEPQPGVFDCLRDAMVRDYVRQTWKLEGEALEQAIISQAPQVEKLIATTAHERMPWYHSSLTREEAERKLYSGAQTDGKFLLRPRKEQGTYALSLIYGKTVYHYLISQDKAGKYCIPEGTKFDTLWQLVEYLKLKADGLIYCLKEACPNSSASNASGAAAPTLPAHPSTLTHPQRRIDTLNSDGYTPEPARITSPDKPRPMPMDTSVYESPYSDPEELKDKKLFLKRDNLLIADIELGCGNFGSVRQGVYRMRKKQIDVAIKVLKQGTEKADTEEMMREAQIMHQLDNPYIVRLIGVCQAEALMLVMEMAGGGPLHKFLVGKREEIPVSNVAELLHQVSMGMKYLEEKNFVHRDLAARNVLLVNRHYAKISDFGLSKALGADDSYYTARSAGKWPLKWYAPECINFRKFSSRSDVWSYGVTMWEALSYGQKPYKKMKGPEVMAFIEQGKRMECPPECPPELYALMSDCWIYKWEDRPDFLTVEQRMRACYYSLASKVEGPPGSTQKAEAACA
Chain of ROS1 (human) (P08922 whole entry, looked up): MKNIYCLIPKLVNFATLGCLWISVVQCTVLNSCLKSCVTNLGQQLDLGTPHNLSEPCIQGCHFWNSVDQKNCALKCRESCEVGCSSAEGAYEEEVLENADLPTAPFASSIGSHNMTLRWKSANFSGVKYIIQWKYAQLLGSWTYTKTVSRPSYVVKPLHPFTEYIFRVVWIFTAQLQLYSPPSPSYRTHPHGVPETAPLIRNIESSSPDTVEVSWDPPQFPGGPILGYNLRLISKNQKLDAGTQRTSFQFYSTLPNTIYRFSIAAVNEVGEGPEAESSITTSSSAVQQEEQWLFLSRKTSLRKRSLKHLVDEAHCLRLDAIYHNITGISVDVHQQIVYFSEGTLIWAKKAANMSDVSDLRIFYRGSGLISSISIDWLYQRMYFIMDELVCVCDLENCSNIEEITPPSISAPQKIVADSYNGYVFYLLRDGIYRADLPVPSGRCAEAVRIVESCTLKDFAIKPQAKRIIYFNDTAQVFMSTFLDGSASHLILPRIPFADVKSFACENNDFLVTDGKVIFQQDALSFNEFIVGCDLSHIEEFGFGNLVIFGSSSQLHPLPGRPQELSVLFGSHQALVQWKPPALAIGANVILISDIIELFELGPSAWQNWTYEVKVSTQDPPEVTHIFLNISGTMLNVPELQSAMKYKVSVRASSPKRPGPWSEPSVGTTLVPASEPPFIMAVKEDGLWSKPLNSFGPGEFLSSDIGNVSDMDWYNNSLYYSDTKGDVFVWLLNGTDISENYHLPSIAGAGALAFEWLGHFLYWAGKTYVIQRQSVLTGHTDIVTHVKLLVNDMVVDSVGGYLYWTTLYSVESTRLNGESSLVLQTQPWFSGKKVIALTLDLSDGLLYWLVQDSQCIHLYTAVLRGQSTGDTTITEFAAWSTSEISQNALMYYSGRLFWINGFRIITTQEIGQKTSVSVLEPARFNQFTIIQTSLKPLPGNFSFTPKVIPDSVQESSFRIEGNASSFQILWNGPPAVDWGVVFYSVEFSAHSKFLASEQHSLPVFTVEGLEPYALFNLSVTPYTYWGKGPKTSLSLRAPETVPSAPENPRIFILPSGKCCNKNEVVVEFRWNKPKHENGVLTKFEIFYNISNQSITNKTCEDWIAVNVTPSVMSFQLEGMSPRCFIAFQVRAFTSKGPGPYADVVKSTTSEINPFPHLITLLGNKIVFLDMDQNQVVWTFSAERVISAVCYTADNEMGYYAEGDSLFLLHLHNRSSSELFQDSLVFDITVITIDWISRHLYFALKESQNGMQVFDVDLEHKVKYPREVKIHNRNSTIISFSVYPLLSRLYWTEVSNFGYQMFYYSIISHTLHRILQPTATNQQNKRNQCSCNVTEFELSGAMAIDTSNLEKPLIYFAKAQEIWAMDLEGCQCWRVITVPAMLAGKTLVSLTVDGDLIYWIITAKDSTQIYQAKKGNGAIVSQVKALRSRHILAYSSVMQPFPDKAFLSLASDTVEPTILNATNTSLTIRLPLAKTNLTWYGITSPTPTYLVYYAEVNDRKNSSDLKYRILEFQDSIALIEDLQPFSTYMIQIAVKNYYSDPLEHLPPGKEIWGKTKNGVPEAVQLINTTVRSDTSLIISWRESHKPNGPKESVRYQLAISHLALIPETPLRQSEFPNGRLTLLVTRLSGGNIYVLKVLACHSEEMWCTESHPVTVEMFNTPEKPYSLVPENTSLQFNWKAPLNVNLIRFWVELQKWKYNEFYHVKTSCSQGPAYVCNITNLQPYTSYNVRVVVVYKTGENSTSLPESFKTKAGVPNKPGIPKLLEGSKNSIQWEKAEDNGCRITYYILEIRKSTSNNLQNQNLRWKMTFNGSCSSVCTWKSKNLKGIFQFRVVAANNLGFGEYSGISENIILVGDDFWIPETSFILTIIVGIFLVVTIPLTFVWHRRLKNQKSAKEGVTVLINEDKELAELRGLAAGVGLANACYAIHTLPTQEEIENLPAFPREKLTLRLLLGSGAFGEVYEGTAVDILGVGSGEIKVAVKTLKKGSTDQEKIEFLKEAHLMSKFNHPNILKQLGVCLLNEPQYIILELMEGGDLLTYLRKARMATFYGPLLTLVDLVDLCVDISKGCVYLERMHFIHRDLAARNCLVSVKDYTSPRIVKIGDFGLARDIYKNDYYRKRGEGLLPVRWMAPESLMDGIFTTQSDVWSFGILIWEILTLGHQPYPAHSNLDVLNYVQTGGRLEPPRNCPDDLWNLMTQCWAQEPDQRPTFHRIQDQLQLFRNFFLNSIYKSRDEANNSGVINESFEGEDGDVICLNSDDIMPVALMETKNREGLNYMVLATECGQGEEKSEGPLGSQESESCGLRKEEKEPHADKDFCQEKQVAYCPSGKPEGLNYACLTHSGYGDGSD
Chain of EPHA5 (human) (P54756 whole entry, looked up): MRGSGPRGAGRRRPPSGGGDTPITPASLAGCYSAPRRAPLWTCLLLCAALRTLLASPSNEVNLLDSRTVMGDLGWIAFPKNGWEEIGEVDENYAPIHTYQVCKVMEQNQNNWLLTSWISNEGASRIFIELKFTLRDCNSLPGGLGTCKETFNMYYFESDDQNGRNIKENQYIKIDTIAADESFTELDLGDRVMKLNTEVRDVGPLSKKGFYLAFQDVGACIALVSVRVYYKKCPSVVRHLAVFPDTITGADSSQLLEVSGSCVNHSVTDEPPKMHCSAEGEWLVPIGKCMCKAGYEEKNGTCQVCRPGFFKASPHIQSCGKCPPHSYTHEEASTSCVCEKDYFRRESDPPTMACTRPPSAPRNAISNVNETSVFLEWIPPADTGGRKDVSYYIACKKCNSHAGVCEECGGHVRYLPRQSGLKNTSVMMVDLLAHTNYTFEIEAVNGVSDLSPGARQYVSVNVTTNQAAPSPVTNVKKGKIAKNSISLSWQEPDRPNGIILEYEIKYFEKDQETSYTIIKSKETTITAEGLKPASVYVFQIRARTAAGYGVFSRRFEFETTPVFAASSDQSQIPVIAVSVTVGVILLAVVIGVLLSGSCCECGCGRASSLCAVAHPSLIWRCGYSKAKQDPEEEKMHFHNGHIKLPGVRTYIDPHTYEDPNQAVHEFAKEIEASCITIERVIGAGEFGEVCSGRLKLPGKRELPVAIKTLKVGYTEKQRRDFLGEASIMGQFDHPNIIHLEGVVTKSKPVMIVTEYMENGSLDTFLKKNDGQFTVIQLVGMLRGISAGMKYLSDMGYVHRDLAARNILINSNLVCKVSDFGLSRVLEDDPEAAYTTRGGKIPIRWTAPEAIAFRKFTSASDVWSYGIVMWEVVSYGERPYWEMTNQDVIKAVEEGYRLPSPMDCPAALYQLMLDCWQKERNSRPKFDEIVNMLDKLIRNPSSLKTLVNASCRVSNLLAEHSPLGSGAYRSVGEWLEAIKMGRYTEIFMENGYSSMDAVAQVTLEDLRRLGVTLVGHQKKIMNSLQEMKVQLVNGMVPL
Chain of MAP3K2 (human) (Q9Y2U5 whole entry, looked up): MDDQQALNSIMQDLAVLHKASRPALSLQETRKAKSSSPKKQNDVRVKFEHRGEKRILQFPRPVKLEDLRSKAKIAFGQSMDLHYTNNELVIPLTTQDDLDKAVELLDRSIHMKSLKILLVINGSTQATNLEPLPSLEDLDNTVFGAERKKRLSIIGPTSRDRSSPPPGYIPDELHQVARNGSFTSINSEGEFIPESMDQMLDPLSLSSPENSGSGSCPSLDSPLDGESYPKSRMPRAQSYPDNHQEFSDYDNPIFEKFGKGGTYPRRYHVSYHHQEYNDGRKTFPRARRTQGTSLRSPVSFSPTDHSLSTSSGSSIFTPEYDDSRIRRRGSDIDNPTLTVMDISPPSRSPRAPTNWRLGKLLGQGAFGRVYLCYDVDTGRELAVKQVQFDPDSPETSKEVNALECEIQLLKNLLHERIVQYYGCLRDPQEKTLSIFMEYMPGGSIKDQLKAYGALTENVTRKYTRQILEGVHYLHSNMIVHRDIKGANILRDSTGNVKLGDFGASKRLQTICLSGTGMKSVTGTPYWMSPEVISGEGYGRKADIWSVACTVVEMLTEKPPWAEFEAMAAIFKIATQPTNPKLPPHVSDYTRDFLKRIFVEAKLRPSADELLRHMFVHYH
Chain of BLK (human) (P51451 whole entry, looked up): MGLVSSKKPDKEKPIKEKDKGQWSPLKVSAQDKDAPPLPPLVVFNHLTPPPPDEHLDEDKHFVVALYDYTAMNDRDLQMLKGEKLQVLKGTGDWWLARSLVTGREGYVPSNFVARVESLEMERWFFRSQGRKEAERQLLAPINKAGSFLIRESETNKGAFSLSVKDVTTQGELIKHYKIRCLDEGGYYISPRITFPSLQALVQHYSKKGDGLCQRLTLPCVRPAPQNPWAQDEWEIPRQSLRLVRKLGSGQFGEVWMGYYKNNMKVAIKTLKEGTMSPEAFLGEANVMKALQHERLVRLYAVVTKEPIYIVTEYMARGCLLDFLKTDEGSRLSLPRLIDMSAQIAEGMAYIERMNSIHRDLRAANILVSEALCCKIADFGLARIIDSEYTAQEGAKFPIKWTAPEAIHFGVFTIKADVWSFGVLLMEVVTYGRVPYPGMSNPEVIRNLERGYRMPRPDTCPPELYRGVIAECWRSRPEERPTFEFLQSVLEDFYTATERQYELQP

Structure (SMILES)	residual activity (ACVR1 (human))	residual activity (BLK (human))	residual activity (CDK1 CCNA2 (human))	residual activity (DCLK2 (human))	residual activity (EPHA3 (human))	residual activity (EPHA5 (human))	residual activity (EPHA6 (human))	residual activity (FER (human))	residual activity (FLT1 (human))	residual activity (FRK (human))	residual activity (GSG2 (human))	residual activity (HIPK3 (human))	residual activity (IGF1R (human))	residual activity (IKBKB (human))	residual activity (MAP2K2 (human))	residual activity (MAP3K2 (human))	residual activity (MYO3B (human))	residual activity (PAK6 (human))	residual activity (PNCK (human))	residual activity (PRKACG (human))	also measured
CCCNC(=O)Nc1ccc(Oc2ncnc3cc(OC)c(OC)cc23)cc1Cl	101%	96.8%	97.7%	96.4%	98.5%	81.8%	77.7%	74.1%	65.2%	87.2%	99.1%	96.2%	77%	100%	99.9%	89.5%	76.2%	106%	95.4%	106%	residual activity (ABL1 (human)): 89%; residual activity (AURKB (human)): 37%; residual activity (BTK (human)): 98.6%; residual activity (DYRK1A (human)): 96.9%; residual activity (EGFR (human)): 88.1%; residual activity (FGR (human)): 70.2%; residual activity (MAPKAPK2 (human)): 101%; residual activity (MYLK2 (human)): 99.9%; residual activity (PRKCB1 (human)): 100%; residual activity (PRKCD (human)): 90.1%; residual activity (RET (human)): 8.42%; residual activity (ROS1 (human)): 97.6%; residual activity (STK24 (human)): 91.7%; residual activity (STK38 (human)): 87.9%; residual activity (STK4 (human)): 92.8%; residual activity (TLK2 (human)): 99.5%; residual activity (ULK3 (human)): 80.7%; residual activity (ZAP70 (human)): 102%
Cc1cc2ncc(-c3ccccc3)nc2cc1C	91.8%	96.5%	94.4%	100%	109%	96.1%	93%	91%	85.2%	99.1%	91.5%	94.4%	86.8%	101%	97.6%	105%	99%	97.4%	96.3%	95.8%	residual activity (ABL1 (human)): 99.6%; residual activity (AURKB (human)): 85.4%; residual activity (BTK (human)): 94.8%; residual activity (CSNK2A2 (human)): 90.3%; residual activity (DYRK1A (human)): 89.9%; residual activity (EGFR (human)): 84.5%; residual activity (FGR (human)): 99.1%; residual activity (MAPKAPK2 (human)): 95.9%; residual activity (MYLK2 (human)): 99.7%; residual activity (PDGFRB (human)): 89.1%; residual activity (PRKCB1 (human)): 103%; residual activity (PRKCD (human)): 92.3%; residual activity (RET (human)): 88%; residual activity (ROS1 (human)): 100%; residual activity (STK24 (human)): 94.5%; residual activity (STK38 (human)): 94.7%; residual activity (STK4 (human)): 98.6%; residual activity (TLK2 (human)): 100%; residual activity (ULK3 (human)): 86.4%; residual activity (ZAP70 (human)): 96.7%
C#Cc1cccc(Nc2ncnc3cc(OCCOC)c(OCCOC)cc23)c1	101%	79.4%	99.6%	102%	93.2%	99.1%	40.4%	94%	87.5%	102%	80.9%	102%	91.6%	83.5%	105%	117%	84.4%	104%	103%	108%	residual activity (PRKCB1 (human)): 92.4%; residual activity (PRKCD (human)): 104%; residual activity (RET (human)): 48.6%; residual activity (ROS1 (human)): 99.6%; residual activity (STK24 (human)): 115%; residual activity (STK38 (human)): 101%; residual activity (STK4 (human)): 97.4%; residual activity (TLK2 (human)): 85.9%; residual activity (ULK3 (human)): 105%; residual activity (ZAP70 (human)): 94.4%
O=c1cc(N2CCNCC2)oc2c(-c3ccccc3)cccc12	90.3%	122%	84.8%	116%	88.5%	109%	88.2%	99.2%	86.6%	105%	94.3%	116%	103%	103%	94%	105%	97.5%	102%	99.8%	83.2%	residual activity (ABL1 (human)): 110%; residual activity (AURKB (human)): 97.8%; residual activity (BTK (human)): 85.7%; residual activity (DYRK1A (human)): 96.8%; residual activity (EGFR (human)): 110%; residual activity (FGR (human)): 99.9%; residual activity (MAPKAPK2 (human)): 103%; residual activity (MYLK2 (human)): 97.3%; residual activity (PDGFRB (human)): 101%; residual activity (PRKCB1 (human)): 91.6%; residual activity (PRKCD (human)): 99.6%; residual activity (RET (human)): 106%; residual activity (ROS1 (human)): 99.2%; residual activity (STK24 (human)): 89.6%; residual activity (STK38 (human)): 94.3%; residual activity (STK4 (human)): 88.7%; residual activity (TLK2 (human)): 94.8%; residual activity (ULK3 (human)): 101%; residual activity (ZAP70 (human)): 102%
NC(=O)c1ccc(N(C(N)=O)c2c(F)cccc2F)nc1-c1ccc(F)cc1F	105%	100%	101%	97.5%	97%	105%	95%	95.6%	102%	106%	81.3%	98.4%	92.3%	94.8%	92.3%	122%	99.2%	103%	108%	109%	residual activity (ABL1 (human)): 99.7%; residual activity (AURKB (human)): 91.3%; residual activity (BTK (human)): 98.2%; residual activity (CSNK2A2 (human)): 109%; residual activity (DYRK1A (human)): 98.7%; residual activity (EGFR (human)): 92.7%; residual activity (FGR (human)): 94.7%; residual activity (MAPKAPK2 (human)): 98.9%; residual activity (MYLK2 (human)): 101%; residual activity (PDGFRB (human)): 62.8%; residual activity (PRKCB1 (human)): 86.1%; residual activity (PRKCD (human)): 104%; residual activity (RET (human)): 93.1%; residual activity (ROS1 (human)): 95%; residual activity (STK24 (human)): 105%; residual activity (STK38 (human)): 101%; residual activity (STK4 (human)): 101%; residual activity (TLK2 (human)): 95.7%; residual activity (ULK3 (human)): 101%; residual activity (ZAP70 (human)): 100%
